Experimental data reported in article PMC6812009, “Covalent Aurora A regulation by the metabolic integrator coenzyme A” (Redox Biology, 2019).

Experiments:
Test in all cases: Kinase profiling screen (radioactive filter-binding assay)
Assay type in all cases: biochemical
MAPKAP-K2 = MAPKAP-K2 (Homo sapiens, UniProt P49137); conditions: 100 μM compound, 20 μM ATP; read-out: Kinase activity, % of activity in the absence of inhibitor
Method in brief: (§1)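 CoA, dpCoA and ADP were each tested in vitro, in duplicate, at 100 μM final concentration as part of a 117-kinase panel. Recombinant kinases were used with model substrates and optimal ATP concentrations.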

GCK = biological target: T1, GCK (Homo sapiens, UniProt Q12851); conditions: 100 μM compound, 20 μM ATP; read-out: Kinase activity, % of activity in the absence of inhibitor
T1 sequence (Q12851 1-820): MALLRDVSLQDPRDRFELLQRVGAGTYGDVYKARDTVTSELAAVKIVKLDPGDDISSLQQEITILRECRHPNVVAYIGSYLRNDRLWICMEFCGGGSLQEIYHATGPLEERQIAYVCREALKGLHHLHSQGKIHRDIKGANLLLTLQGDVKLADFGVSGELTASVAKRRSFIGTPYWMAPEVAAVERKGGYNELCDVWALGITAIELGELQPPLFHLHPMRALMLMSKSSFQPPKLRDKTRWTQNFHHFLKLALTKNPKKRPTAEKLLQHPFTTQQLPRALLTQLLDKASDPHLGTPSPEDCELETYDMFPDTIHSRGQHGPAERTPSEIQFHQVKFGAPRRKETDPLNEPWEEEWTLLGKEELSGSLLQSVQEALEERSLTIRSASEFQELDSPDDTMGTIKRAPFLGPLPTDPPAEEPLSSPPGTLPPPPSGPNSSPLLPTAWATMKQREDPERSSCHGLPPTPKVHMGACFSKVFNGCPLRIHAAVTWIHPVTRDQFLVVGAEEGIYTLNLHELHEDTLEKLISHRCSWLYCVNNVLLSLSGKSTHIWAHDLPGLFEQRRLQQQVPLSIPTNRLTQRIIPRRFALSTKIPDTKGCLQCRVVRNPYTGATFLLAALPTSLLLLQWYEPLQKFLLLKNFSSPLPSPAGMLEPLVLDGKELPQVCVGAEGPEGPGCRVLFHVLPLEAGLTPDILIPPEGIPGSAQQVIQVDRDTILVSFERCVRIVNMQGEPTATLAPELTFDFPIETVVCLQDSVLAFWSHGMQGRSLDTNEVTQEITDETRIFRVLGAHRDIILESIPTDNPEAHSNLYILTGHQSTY
Method in brief: as §1

PKD1 = biological target: T2, PKD1 (Homo sapiens, UniProt Q15139); conditions: 100 μM compound, 50 μM ATP; read-out: Kinase activity, % of activity in the absence of inhibitor
T2 sequence (Q15139 1-912): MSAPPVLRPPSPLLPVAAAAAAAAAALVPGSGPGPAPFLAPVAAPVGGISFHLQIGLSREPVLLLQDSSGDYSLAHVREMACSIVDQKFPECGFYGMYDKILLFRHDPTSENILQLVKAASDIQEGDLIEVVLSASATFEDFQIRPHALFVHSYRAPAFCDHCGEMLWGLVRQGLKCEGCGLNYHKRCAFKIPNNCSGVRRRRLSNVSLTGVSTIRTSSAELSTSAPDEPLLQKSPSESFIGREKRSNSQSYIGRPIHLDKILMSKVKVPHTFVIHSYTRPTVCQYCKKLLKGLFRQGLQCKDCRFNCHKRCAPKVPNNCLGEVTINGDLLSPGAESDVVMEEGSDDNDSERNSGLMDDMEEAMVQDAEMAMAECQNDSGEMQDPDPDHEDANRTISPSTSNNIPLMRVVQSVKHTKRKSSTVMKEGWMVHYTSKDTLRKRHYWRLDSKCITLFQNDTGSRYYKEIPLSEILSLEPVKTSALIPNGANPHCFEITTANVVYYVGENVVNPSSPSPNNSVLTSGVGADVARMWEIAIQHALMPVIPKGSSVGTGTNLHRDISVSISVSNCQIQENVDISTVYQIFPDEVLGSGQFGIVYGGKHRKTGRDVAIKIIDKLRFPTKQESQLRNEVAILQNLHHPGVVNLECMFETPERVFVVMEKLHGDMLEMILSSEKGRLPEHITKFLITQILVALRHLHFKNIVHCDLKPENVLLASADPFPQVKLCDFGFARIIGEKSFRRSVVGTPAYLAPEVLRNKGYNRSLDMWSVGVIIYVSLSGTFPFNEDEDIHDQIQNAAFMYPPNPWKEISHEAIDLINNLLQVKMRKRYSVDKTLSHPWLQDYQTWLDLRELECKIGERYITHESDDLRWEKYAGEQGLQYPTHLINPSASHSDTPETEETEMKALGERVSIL
Method in brief: as §1

NEK6 = NEK6 (Homo sapiens, UniProt Q9HC98); conditions: 100 μM compound, 50 μM ATP; read-out: Kinase activity, % of activity in the absence of inhibitor
Method in brief: as §1

NEK6, sequence (Q9HC98 whole entry): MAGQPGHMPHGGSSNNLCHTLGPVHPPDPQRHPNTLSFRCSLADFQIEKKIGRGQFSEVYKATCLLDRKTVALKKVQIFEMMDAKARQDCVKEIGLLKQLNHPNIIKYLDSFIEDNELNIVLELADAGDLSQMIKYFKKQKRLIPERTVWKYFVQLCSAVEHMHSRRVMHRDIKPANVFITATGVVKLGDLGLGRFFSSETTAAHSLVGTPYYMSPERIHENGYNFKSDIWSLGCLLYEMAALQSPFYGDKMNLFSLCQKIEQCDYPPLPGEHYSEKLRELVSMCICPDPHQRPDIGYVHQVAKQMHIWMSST
MAPKAP-K2, sequence (P49137 whole entry): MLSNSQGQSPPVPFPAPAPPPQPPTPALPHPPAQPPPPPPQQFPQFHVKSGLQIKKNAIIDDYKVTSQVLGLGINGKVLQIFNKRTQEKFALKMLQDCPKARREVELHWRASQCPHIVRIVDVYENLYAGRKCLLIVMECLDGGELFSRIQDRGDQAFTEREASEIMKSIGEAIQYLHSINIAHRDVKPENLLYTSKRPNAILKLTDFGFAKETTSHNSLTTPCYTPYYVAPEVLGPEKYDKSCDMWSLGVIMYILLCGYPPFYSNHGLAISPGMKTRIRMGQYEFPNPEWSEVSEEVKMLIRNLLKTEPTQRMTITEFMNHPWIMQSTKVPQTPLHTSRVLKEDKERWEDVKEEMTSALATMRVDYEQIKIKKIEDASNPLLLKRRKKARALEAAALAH

Structure (SMILES)	activity at 100 µM (MAPKAP-K2) [%]	activity at 100 µM (GCK) [%]	activity at 100 µM (PKD1) [%]	activity at 100 µM (NEK6) [%]
Nc1ncnc2c1ncn2C1OC(COP(=O)(O)OP(=O)(O)O)C(O)C1O (stereo not drawn) [ADP]	53	56.5	56.2	26.6
CC(C)(COP(=O)(O)OP(=O)(O)OCC1OC(n2cnc3c(N)ncnc32)C(O)C1O)C(O)C(=O)NCCC(=O)NCCS (stereo not drawn) [dpCoA, dephospho-CoA]	81.7	71.2	104	69.6
CC(C)(COP(=O)(O)OP(=O)(O)OC[C@H]1O[C@@H](n2cnc3c(N)ncnc32)[C@H](O)[C@@H]1OP(=O)(O)O)[C@@H](O)C(=O)NCCC(=O)NCCS [CoA, Coenzyme A]	93.1	109	112	118
